Test results: patent US20240327401A1, “FUSED RING COMPOUND, PHARMACEUTICAL COMPOSITION, AND APPLICATION THEREOF” (EVOPOINT BIOSCIENCES CO., LTD., priority 2021, published 2024)

Assays:
[1] = molecular target: T1, SOS1/KRAS G12C protein binding (Homo sapiens, UniProt Q07889); experiment: Inhibition of SOS1/KRAS G12C protein binding (665 nm/615 nm ratio); conditions: 15 nM KRAS G12C (aa 1-169), 2.5 nM His-SOS1 (aa 564-1049); nonlinear regression
T1 construct: His-SOS1 (aa 564-1049) protein; purchased Pharmaron Beijing Co., Ltd. 20200717 (His-SOS1); 20200707 (KRAS G12C)
T1 sequence (Q07889 564-1049): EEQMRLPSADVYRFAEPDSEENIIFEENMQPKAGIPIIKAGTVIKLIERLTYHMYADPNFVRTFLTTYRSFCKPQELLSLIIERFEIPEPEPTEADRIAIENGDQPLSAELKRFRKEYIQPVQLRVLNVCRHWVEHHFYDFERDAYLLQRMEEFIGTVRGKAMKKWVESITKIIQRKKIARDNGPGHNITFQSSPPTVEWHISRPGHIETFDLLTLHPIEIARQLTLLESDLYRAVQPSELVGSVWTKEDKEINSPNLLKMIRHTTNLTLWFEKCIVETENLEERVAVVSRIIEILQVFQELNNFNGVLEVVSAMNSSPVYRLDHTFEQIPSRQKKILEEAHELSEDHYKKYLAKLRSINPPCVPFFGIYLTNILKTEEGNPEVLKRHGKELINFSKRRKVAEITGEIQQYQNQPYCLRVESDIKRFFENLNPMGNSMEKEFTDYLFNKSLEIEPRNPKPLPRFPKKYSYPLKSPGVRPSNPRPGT
Protocol: Efficacy Example 2: Evaluation of Inhibition of SOS1/KRAS G12C Protein Binding
A test compound was dissolved in 100% DMSO to give a solution at a concentration of 10 mM. 10 μL of the solution was taken and 3-fold diluted with 100% DMSO to prepare test compound solutions with concentrations of 10000 nM to […], for a total of 11 concentrations. The compound solutions at different concentrations were then transferred to a 384-well plate at 0.1 μL/well using a sonic droplet device Echo (Labcyte), and 2 replicate wells were set for each concentration.
A 15 nM KRAS G12C (aa 1-169) protein (Pharmaron Beijing Co., Ltd., 20200707) was transferred to the 384-well reaction plate at 5 μL/well using the sonic droplet device Echo (Labcyte), and then the reaction plate was centrifuged in a centrifuge (Eppendorf, 5810R) at 1000 rpm/min for 1 min.
A 2.5 nM His-SOS1 (aa 564-1049) protein (Pharmaron Beijing Co., Ltd., 20200717) was transferred to the 384-well reaction plate at 5 μL/well using the sonic droplet device Echo (Labcyte), and then the reaction plate was centrifuged in a centrifuge (Eppendorf, 5810R) at 1000 rpm/min for 1 min and incubated at 25° C. for 15 min.
A mixed solution of Antibody 1 (MAb Anti-6his-Tb cryptate Gold, Cisbio, 61HI2TLA) and Antibody 2 (MAb Anti-GST-XL665, Cisbio, 61GSTXLA) was transferred to the 384-well reaction plate at 10 μL/well using the sonic droplet device Echo (Labcyte), and then the reaction plate was centrifuged in a centrifuge (Eppendorf, 5810R) at 1000 rpm/min for 1 min and incubated at 25° C. for 120 min.
The 665 nm/615 nm optical density ratio was read using an Envision multifunctional microplate reader (Perkin Elmer, Envision 2104).
Analysis of Original Data:
The IC50 values of the compounds were fitted by a nonlinear regression equation of Graphpad Prism 8. The results are shown in Table 2: • Negative control: DMSO
The IC50 (half maximal inhibitory concentration) values of the compounds were calculated using the following non-linear fitting equation:
[formula] • X: Log of cpd concentration • Y: 665 nm/615 nm ratio

[2] = test system: ERK phosphorylation in DLD-1 cells; experiment: In-cell Western blot assay for ERK phosphorylation in DLD-1 cells; type: cell-based; conditions: Homo sapiens, p-ERK signal corrected using DMSO and BI-3406, four-parameter fit
Protocol: Efficacy Example 1: In-cell Western Blot Assay for ERK Phosphorylation in DLD-1 Cells
DLD-1 cells (ATCC, CCL-221) were thawed and cultured in a culture medium containing RPMI1640 (Gibco, A10491-01), 10% fetal bovine serum (FBS) (Transgene, FS201-02) and 1% antibiotic P/S (Gibco, 15140-122) for 3 days until the cell viability was good. The cells were inoculated into a 384-well plate and incubated at 37° C. with 5% CO2 overnight. A test compound, a positive control compound, and a negative control were added. The compound was at concentrations of 10000 nM to 1.52 nM (3-fold dilution) and […], for a total of 10 concentrations. The mixture was well mixed and incubated at 37° C. with 5% CO2. The cells were washed twice with PBS (Solarbio, P1010), and then a blocking buffer was added. After 1 h of blocking at room temperature, a primary antibody mixture (phospho-p44/42 MAPK (T202/Y204) Rabbit mAb (CST, […]), GAPDH (D4C6R) Mouse mAb) (CST, 97166S) was added, followed by overnight incubation at 4° C. The cells were washed 3 times with PBST (PBS containing 0.05% Tween-20 (Solarbio, T8220)), and a secondary antibody mixture (goat anti rabbit 800CW (LI-COR, 926-32211), goat anti mouse 680RD (LI-COR, 926-68070)) was added, followed by incubation at room temperature in the dark. The 384-well plate was reversed and centrifuged at 1000 rpm for 1 min, and read on an Odyssey CLx fluorescence imaging system (LI-COR) to obtain fluorescence signal values, which were corrected using DMSO and BI-3406.
[formula] • H=Ave (DMSO) • L=Ave (BI-3406) • SD (H)=STDEV (DMSO) • SD (L)=STDEV (BI-3406)
The IC50 values of the compounds were calculated using a four-parameter fitting algorithm, specifically as follows:
[formula] • X: Log of cpd concentration • Y: Ave (relative pERK) • Top and Bottom: Plateaus in same units as Y • log IC50: same log units as X • HillSlope: Slope factor or Hill slope.

Compound	IC50 [1] [nM]	IC50 [2] [nM]
COc1c(=O)n(C2(C(F)F)CC2)cc2c(N[C@H](C)c3cccc(C(F)F)c3F)nc(C)nc12 [SZ-022244]	17.8	265
Cc1nc(N[C@H](C)c2cccc(C(F)F)c2F)c2cn(C3(C(F)F)CC3)c(=O)c(N(C)C)c2n1 [SZ-022251]	–	146
[2H]C([2H])([2H])Oc1c(=O)n(C2(C(F)F)CC2)cc2c(N[C@H](C)c3cccc(C(F)F)c3F)nc(C)nc12 [SZ-022295]	8.15	256
CCOc1c(=O)n(C2(C(F)F)CC2)cc2c(N[C@H](C)c3cccc(C(F)F)c3F)nc(C)nc12 [SZ-022296]	9.43	143
Cc1nc(N[C@H](C)c2cccc(C(F)F)c2F)c2cn(C3(C(F)F)CC3)c(=O)c(OC3CC3)c2n1 [SZ-022299]	22.4	751
COc1c(=O)n(C2(C)CC2)cc2c(N[C@H](C)c3cccc(C(F)F)c3F)nc(C)nc12 [SZ-022300]	12.1	412
COc1c(=O)n(C2(CF)CC2)cc2c(N[C@H](C)c3cccc(C(F)F)c3F)nc(C)nc12 [SZ-022301]	6.5	262
COc1c(=O)n(C2(C(F)F)CC2)cc2c(N[C@H](C)c3cccc(C(F)F)c3C)nc(C)nc12 [SZ-022302]	3.79	104
COc1c(=O)n(C2(C(F)F)CC2)cc2c(N[C@H](C)c3cccc(C(C)(F)F)c3F)nc(C)nc12 [SZ-022303]	9.77	128
COc1c(=O)n(C2(C(F)F)CC2)cc2c(N[C@H](C)c3cccc(C(F)(F)F)c3C)nc(C)nc12 [SZ-022304]	6.98	79
CSc1c(=O)n(C2(C(F)F)CC2)cc2c(N[C@H](C)c3cccc(C(F)F)c3F)nc(C)nc12 [SZ-022306]	12.5	213
Cc1nc(N[C@H](C)c2cccc(C(F)F)c2F)c2cn(C3(C(F)F)CC3)c(=O)c(S(C)(=O)=O)c2n1 [SZ-022307]	25.9	253
Cc1nc(N[C@H](C)c2cccc(C(F)F)c2F)c2cn(C3(C(F)F)CC3)c(=O)c(OCC(F)(F)F)c2n1 [SZ-022312]	17.9	601
Cc1nc(N[C@H](C)c2cccc(C(F)F)c2F)c2cn(C3(C(F)F)CC3)c(=O)c(OC(C)C)c2n1 [SZ-022313]	44	1270
Cc1nc(N[C@H](C)c2cccc(C(F)F)c2F)c2cn(C3(C(F)F)CC3)c(=O)c(OCC3CC3)c2n1 [SZ-022314]	17.3	563
COc1c(=O)n(C2(C(F)F)CC2)cc2c(N[C@H](C)c3cccc(C(F)(F)C(C)(C)O)c3F)nc(C)nc12 [SZ-022317]	4.54	371
COc1c(=O)n(C2(C(F)(F)F)CC2)cc2c(N[C@H](C)c3cccc(C(F)F)c3F)nc(C)nc12 [SZ-022325]	15.9	216
COc1c(=O)n(C2CCOCC2)cc2c(N[C@H](C)c3cccc(C(F)F)c3F)nc(C)nc12 [SZ-022326]	10.5	–
COc1c(=O)n(C2(C(F)F)CC2)cc2c(N[C@H](C)c3cc(N)cc(C(F)(F)F)c3)nc(C)nc12 [SZ-022327]	5.04	153

Compound	IC50 [1] [nM]	IC50 [2] [nM]
COc1c(=O)n(C2(C)CCOC2)cc2c(N[C@H](C)c3cccc(C(F)F)c3F)nc(C)nc12 (some centres unmarked) [SZ-022328]	9.7	309
COc1c(=O)n(C2(C(F)F)CC2)cc2c(N[C@H](C)c3cccc(C(F)(F)CO)c3F)nc(C)nc12 [SZ-022329]	2.63	417
COc1c(=O)n(C2(C(F)F)CC2)cc2c(N[C@H](C)c3cccc4c(F)coc34)nc(C)nc12 [SZ-022330B]	9.99	400
COc1c(=O)n(C2(C(F)F)CC2)cc2c(N[C@H](C)c3cccc4c3OCC4(F)F)nc(C)nc12 [SZ-022330]	5.02	117
COc1c(=O)n(C2CCN(C(=O)C3CC3)CC2)cc2c(N[C@H](C)c3cccc(C(F)F)c3F)nc(C)nc12 [SZ-022335]	27.9	–
COc1c(=O)n(C2CC(F)(F)C2)cc2c(N[C@H](C)c3cccc(C(F)F)c3F)nc(C)nc12 [SZ-022336]	36.5	–
CCOc1c(=O)n(C2(C(F)F)CC2)cc2c(N[C@H](C)c3cccc(C(F)F)c3C)nc(C)nc12 [SZ-022337]	4.14	174
CCOc1c(=O)n(C2(C(F)F)CC2)cc2c(N[C@H](C)c3cccc(C(C)(F)F)c3F)nc(C)nc12 [SZ-022338]	12.1	334
CCOc1c(=O)n(C2(C(F)F)CC2)cc2c(N[C@H](C)c3cccc(C(F)(F)F)c3C)nc(C)nc12 [SZ-022339]	7.25	186
CCOc1c(=O)n(C2(C(F)(F)F)CC2)cc2c(N[C@H](C)c3cccc(C(F)(F)F)c3C)nc(C)nc12 [SZ-022340]	15.2	367
CCOc1c(=O)n(C2(C)CC2)cc2c(N[C@H](C)c3cccc(C(F)(F)F)c3C)nc(C)nc12 [SZ-022341]	7.76	161
CCOc1c(=O)n(C2(CF)CC2)cc2c(N[C@H](C)c3cccc(C(F)(F)F)c3C)nc(C)nc12 [SZ-022342]	7.15	57
CCC1(n2cc3c(N[C@H](C)c4cccc(C(F)F)c4F)nc(C)nc3c(OC)c2=O)CC1 [SZ-022343]	26.7	–
COc1c(=O)n(C2(C#N)CC2)cc2c(N[C@H](C)c3cccc(C(F)F)c3F)nc(C)nc12 [SZ-022344]	23.7	–
COc1c(=O)n(C23CC(C2)C3)cc2c(N[C@H](C)c3cccc(C(F)F)c3F)nc(C)nc12 [SZ-022345]	21.8	885
COCC1(n2cc3c(N[C@H](C)c4cccc(C(F)F)c4F)nc(C)nc3c(OC)c2=O)CC1 [SZ-022346]	30	1020
COc1c(=O)n(C2(CO)CC2)cc2c(N[C@H](C)c3cccc(C(F)F)c3F)nc(C)nc12 [SZ-022347]	60.1	–
COc1c(=O)n(C2(C(F)F)CC2)cc2c(N[C@H](C)c3cccc(C(F)(F)F)c3)nc(C)nc12 [SZ-022348]	21.8	614
CCS(=O)(=O)c1c(=O)n(C2(C(F)F)CC2)cc2c(N[C@H](C)c3cccc(C(F)F)c3F)nc(C)nc12 [SZ-022372]	36.6	–
